Results as given in patent publication US5731344A, “Bishispidine compounds, processes for their production and pharmaceutical agents containing these compounds” (Boehringer Mannheim GmbH, priority 1993, dated 1998).

System: Lysozyme
Experiment: Test for the inhibitory activity on the formation of AGE (lysozyme dimer formation, SDS gel electrophoresis, densitometry)
Format: biochemical
Details: AGE-inhibitory action, lysozyme 20 mg/ml, pH 7.4, 200 mmol/l glucose or xylose, 24 to 120 hours
Protocol: Test for the inhibitory activity on the formation of AGE
Lysozyme is dissolved at a final concentration of 20 mg/ml in 100 mmol/l potassium phosphate buffer, pH 7.4. 5 mmol/l sodium azide is added as a preservative. The formation of AGE is initiated by the addition of 200 mmol/l glucose or xylose. Test substances or the reference substance aminoguanidine are added at different concentrations in order to quantify an inhibitory activity on AGE formation. Solvent controls as well as control mixes are also run in the presence of 200 mmol/l sorbitol or xylite for correction purposes. The incubation period of the reaction mixtures is between 24 and 120 hours depending on the sugar used and is selected in such a way that mainly dimers are formed and other higher molecular oligomerization products are formed only to a slight extent.
The samples are prepared and SDS gel electrophoresis is carried out according to literature references. Summarized briefly the samples are diluted with the 4-fold amount of sample buffer (50 mmol/l Tris^* acetate, pH 7.5, 1% SDS, 5 mmol/l dithiothreitol) and heated for 3 minutes to 95° C. Aliquots are applied to 8-18% gradient-SDS gels. In order to determine the molecular weight molecular weight markers are also used in the range 14-340 kD. The separation according to molecular weight is achieved under the following operating conditions: voltage: 600 V, current intensity: 50 mA, power: 30 W, run period: ~60 minutes.
After the gel electrophoresis the gels are fixed according to standard methods and stained with Coomassie Blue. After destaining overnight and drying, the gels are measured densitometrically (Pharmacia Ultra Scan XL using GelScan XL software).
In order to determine the threshold concentration and the IC50 values of the AGE-inhibitory action of the test substances, the dimer formation is plotted semi-logarithmically against the test concentration of the substance and the above-mentioned parameters are calculated.

Compound	IC50 [µM]	Threshold concentration [µmol/L]
COc1ccc(C(c2c(O)cc(/C=C/c3ccc(O)c(O)c3)oc2=O)c2c(O)cc(/C=C/c3ccc(O)c(O)c3)oc2=O)cc1OC [Example 6]	5	> 1
N=C(N)NN [aminoguanidine, reference compound]	4500	500
O=c1oc(/C=C/c2ccc(O)c(O)c2)cc(O)c1C(c1ccc(Cl)cc1)c1c(O)cc(/C=C/c2ccc(O)c(O)c2)oc1=O [Example 1, 3,3'-(4-Chlorobenzylidene)bis[6-[2-(3,4-dihydroxyphenyl)vinyl]-4-hydroxy-2H-pyran-2-one]]	4	> 1
O=c1oc(/C=C/c2ccc(O)c(O)c2)cc(O)c1C(c1ccc(O)c(O)c1)c1c(O)cc(/C=C/c2ccc(O)c(O)c2)oc1=O [Example 7]	4	2

More lines, in order of falling IC50, values ahead:

IC50 [µM]	Compound	Threshold concentration [µmol/L]
22	N#Cc1ccc(C(c2c(O)cc(/C=C/c3ccc(O)c(O)c3)oc2=O)c2c(O)cc(/C=C/c3ccc(O)c(O)c3)oc2=O)cc1 [Example 8]	10
2	COc1ccc(C(c2c(O)cc(/C=C/c3ccc(O)c(O)c3)oc2=O)c2c(O)cc(/C=C/c3ccc(O)c(O)c3)oc2=O)cc1O [Example 3, 3,3'-(3-Hydroxy-4-methoxybenzylidene)bis[6-[2-(3,4-dihydroxyphenyl)vinyl]-4-hydroxy-2H-pyran-2-one]]	> 1
2	CC(C)(C)c1cc(C(c2c(O)cc(/C=C/c3ccc(O)c(O)c3)oc2=O)c2c(O)cc(/C=C/c3ccc(O)c(O)c3)oc2=O)cc(C(C)(C)C)c1O [Example 4, 3,3'-(4-Hydroxy-3,5-(bis-1,1-dimethylethyl)benzylidene]bis[6-[2-(3,4-dihydroxyphenyl)vinyl]-4-hydroxy-2H-pyran-2-one]]	> 1
2	COc1ccc(C(c2c(O)cc(/C=C/c3ccc(O)c(O)c3)oc2=O)c2c(O)cc(/C=C/c3ccc(O)c(O)c3)oc2=O)cc1 [Example 5]	> 1
